In ChEMBL document CHEMBL4507320, “Data for DCP probe NVS-MALT1” (2021):

Key:
[1] = biological target: Serine/threonine-protein kinase BRSK1 (Homo sapiens) (UniProt Q8TDC3); settings: Compound concentration 1000.0 nM
[2] = tested on: Mast/stem cell growth factor receptor Kit (Homo sapiens), P10721 [A829P]; settings: Compound concentration 1000.0 nM
[3] = biological target: Serine/threonine-protein kinase TNNI3K (Homo sapiens) (UniProt Q59H18); settings: Compound concentration 1000.0 nM
[4] = biological target: Serine/threonine-protein kinase DCLK3 (Homo sapiens) (UniProt Q9C098); settings: Compound concentration 1000.0 nM
[5] = biological target: Cyclin-dependent kinase 19 (Homo sapiens) (UniProt Q9BWU1); settings: Compound concentration 1000.0 nM
[6] = biological target: D(2) dopamine receptor (Homo sapiens) (UniProt P14416); settings: Compound concentration 10.0 uM
[7] = biological target: 5-hydroxytryptamine receptor 1D (Homo sapiens) (UniProt P28221); settings: Compound concentration 10.0 uM
[8] = biological target: Protein kinase C eta type (Homo sapiens) (UniProt P24723); settings: Compound concentration 1000.0 nM
Sequence of Protein kinase C eta type (Homo sapiens) (P24723 whole entry, canonical isoform): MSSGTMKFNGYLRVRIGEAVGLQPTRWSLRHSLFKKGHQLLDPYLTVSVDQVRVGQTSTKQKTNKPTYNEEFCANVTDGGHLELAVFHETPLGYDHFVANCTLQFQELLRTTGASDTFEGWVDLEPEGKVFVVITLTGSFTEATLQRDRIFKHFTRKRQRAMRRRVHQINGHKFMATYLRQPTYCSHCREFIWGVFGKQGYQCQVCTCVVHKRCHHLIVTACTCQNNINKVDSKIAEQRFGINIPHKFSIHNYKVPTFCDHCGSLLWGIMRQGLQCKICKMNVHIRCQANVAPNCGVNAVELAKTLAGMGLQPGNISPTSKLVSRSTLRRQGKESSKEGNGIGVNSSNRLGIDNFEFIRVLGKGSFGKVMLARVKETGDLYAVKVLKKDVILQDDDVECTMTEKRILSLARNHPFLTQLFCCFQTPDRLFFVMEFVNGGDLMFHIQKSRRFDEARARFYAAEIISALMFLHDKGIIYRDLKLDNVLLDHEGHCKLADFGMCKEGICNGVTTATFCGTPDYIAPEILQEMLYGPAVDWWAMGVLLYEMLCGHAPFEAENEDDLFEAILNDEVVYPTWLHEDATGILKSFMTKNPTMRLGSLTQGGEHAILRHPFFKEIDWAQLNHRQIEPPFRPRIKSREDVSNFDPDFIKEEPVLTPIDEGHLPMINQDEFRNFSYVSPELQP

[9] = tested on: Phosphatidylinositol 4,5-bisphosphate 3-kinase catalytic subunit alpha isoform (Homo sapiens), P42336 [Q546K]; settings: Compound concentration 1000.0 nM
Sequence of Phosphatidylinositol 4,5-bisphosphate 3-kinase catalytic subunit alpha isoform (Homo sapiens), P42336 [Q546K] (P42336 whole entry Q546K, canonical isoform): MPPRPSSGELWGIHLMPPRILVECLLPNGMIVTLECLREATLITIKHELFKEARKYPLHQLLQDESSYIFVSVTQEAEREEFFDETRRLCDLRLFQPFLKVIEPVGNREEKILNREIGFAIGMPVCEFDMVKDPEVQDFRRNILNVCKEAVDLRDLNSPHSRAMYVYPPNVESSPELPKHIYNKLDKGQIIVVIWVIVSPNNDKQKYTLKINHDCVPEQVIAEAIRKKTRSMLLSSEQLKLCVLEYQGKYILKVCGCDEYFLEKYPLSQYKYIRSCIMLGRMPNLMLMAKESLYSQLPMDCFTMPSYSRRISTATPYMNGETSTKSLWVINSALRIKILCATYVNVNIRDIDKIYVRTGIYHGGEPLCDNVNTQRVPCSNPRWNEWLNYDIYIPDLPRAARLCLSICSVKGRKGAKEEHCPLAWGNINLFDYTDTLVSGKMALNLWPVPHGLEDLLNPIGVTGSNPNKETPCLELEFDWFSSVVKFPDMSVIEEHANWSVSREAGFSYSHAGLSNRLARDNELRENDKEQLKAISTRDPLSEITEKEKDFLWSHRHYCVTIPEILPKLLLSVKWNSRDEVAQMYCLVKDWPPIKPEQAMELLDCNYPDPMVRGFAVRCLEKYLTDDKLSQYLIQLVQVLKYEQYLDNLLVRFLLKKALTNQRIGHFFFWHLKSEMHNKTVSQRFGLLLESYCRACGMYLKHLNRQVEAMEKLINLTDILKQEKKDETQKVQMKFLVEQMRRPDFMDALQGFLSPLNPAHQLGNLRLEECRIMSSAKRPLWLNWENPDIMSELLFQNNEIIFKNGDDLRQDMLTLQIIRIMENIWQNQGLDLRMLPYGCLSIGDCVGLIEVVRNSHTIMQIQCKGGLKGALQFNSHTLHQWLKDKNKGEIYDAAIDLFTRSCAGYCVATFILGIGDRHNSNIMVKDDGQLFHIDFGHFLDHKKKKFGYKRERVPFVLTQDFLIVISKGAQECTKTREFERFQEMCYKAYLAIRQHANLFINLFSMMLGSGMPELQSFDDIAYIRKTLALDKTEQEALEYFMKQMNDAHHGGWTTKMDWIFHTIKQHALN

[10] = biological target: Mitogen-activated protein kinase 11 (Homo sapiens) (UniProt Q15759); settings: Compound concentration 1000.0 nM
[11] = biological target: Mitogen-activated protein kinase 15 (Homo sapiens) (UniProt Q8TD08); settings: Compound concentration 1000.0 nM
[12] = biological target: Serine/threonine-protein kinase PAK 3 (Homo sapiens) (UniProt O75914); settings: Compound concentration 1000.0 nM
[13] = biological target: G protein-coupled receptor kinase 4 (Homo sapiens) (UniProt P32298); settings: Compound concentration 1000.0 nM
[14] = biological target: Receptor-type tyrosine-protein kinase FLT3 (Homo sapiens, UniProt P36888); settings: Compound concentration 1000.0 nM
[15] = biological target: Leukocyte tyrosine kinase receptor (Homo sapiens) (UniProt P29376); settings: Compound concentration 1000.0 nM
[16] = biological target: Tyrosine-protein kinase receptor Tie-1 (Homo sapiens) (UniProt P35590); settings: Compound concentration 1000.0 nM
[17] = biological target: NT-3 growth factor receptor (Homo sapiens) (UniProt Q16288); settings: Compound concentration 1000.0 nM
[18] = biological target: Microtubule-associated serine/threonine-protein kinase 1 (Homo sapiens) (UniProt Q9Y2H9); settings: Compound concentration 1000.0 nM
[19] = biological target: Mitogen-activated protein kinase 1 (Homo sapiens) (UniProt P28482); settings: Compound concentration 1000.0 nM
[20] = biological target: Alpha-2A adrenergic receptor (Homo sapiens) (UniProt P08913); settings: Compound concentration 10.0 uM
[21] = biological target: Ephrin type-B receptor 4 (Homo sapiens) (UniProt P54760); settings: Compound concentration 1000.0 nM
[22] = biological target: Tyrosine-protein kinase Tec (Homo sapiens) (UniProt P42680); settings: Compound concentration 1000.0 nM
[23] = biological target: Rhodopsin kinase GRK7 (Homo sapiens) (UniProt Q8WTQ7); settings: Compound concentration 1000.0 nM
[24] = biological target: Atypical kinase COQ8A, mitochondrial (Homo sapiens) (UniProt Q8NI60); settings: Compound concentration 1000.0 nM
[25] = biological target: Interleukin-1 receptor-associated kinase 1 (Homo sapiens) (UniProt P51617); settings: Compound concentration 1000.0 nM
[26] = biological target: Phosphatidylinositol 5-phosphate 4-kinase type-2 beta (Homo sapiens) (UniProt P78356); settings: Compound concentration 1000.0 nM
[27] = biological target: Ephrin type-A receptor 7 (Homo sapiens) (UniProt Q15375); settings: Compound concentration 1000.0 nM
[28] = biological target: Testis-specific serine/threonine-protein kinase 3 (Homo sapiens) (UniProt Q96PN8); settings: Compound concentration 1000.0 nM
Sequence of Testis-specific serine/threonine-protein kinase 3 (Homo sapiens) (Q96PN8 whole entry): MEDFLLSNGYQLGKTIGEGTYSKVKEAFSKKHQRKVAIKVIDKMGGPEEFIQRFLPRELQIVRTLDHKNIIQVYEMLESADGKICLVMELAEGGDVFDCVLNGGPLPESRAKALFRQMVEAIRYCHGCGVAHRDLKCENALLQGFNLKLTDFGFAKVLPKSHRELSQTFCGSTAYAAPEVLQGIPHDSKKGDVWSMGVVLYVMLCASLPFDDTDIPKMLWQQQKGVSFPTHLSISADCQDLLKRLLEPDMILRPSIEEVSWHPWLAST

[29] = biological target: Cyclin-dependent kinase 7 (Homo sapiens) (UniProt P50613); settings: Compound concentration 1000.0 nM
[30] = biological target: Rho-associated protein kinase 2 (Homo sapiens) (UniProt O75116); settings: Compound concentration 1000.0 nM
[31] = biological target: Calcium-dependent protein kinase 1 (Plasmodium falciparum) (UniProt P62344); settings: Compound concentration 1000.0 nM
[32] = biological target: Misshapen-like kinase 1 (Homo sapiens) (UniProt Q8N4C8); settings: Compound concentration 1000.0 nM
[33] = biological target: Megakaryocyte-associated tyrosine-protein kinase (Homo sapiens) (UniProt P42679); settings: Compound concentration 1000.0 nM
[34] = biological target: Activin receptor type-2A (Homo sapiens) (UniProt P27037); settings: Compound concentration 1000.0 nM
[35] = biological target: Casein kinase II subunit alpha' (Homo sapiens) (UniProt P19784); settings: Compound concentration 1000.0 nM
[36] = biological target: Phosphatidylinositol 4,5-bisphosphate 3-kinase catalytic subunit beta isoform (Homo sapiens) (UniProt P42338); settings: Compound concentration 1000.0 nM
Sequence of Phosphatidylinositol 4,5-bisphosphate 3-kinase catalytic subunit beta isoform (Homo sapiens) (P42338 whole entry, looked up, canonical isoform): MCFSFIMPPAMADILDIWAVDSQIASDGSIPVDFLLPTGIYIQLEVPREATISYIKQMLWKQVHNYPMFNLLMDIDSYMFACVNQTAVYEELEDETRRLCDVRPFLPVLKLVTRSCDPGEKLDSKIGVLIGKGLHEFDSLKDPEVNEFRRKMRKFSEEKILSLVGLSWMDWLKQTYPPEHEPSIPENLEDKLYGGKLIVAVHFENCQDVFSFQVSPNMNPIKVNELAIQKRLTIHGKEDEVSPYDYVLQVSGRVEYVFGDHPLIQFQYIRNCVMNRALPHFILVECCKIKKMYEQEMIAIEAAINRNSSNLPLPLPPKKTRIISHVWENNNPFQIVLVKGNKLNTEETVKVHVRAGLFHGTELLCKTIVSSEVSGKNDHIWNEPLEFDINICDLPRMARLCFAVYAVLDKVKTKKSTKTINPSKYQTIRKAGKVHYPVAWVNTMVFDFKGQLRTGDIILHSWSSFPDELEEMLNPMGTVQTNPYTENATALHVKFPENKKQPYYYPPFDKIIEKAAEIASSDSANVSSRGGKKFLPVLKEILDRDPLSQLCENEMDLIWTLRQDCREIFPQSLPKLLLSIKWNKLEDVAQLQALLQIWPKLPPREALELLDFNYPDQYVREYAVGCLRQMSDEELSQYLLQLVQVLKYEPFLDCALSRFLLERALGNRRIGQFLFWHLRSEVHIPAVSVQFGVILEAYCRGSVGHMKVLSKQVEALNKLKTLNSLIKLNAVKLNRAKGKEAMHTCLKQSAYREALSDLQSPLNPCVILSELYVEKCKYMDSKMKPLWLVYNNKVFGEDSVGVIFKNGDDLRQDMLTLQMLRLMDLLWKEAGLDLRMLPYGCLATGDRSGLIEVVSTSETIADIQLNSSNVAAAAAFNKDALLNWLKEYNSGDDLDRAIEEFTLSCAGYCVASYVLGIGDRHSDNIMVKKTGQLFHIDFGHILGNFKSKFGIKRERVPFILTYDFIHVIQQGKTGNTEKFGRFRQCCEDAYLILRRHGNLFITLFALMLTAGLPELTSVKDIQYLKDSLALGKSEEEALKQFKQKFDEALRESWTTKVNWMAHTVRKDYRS

[37] = biological target: Sodium-dependent serotonin transporter (Homo sapiens) (UniProt P31645); settings: Compound concentration 10.0 uM
[38] = biological target: Dual specificity mitogen-activated protein kinase kinase 2 (Homo sapiens) (UniProt P36507); settings: Compound concentration 1000.0 nM
[39] = tested on: Mast/stem cell growth factor receptor Kit (Homo sapiens), P10721 [V559D,T670I]; settings: Compound concentration 1000.0 nM
[40] = biological target: Cyclin-dependent kinase 2 (Homo sapiens) (UniProt P24941); settings: Compound concentration 1000.0 nM
[41] = biological target: Serine/threonine-protein kinase 17B (Homo sapiens) (UniProt O94768); settings: Compound concentration 1000.0 nM
[42] = biological target: Serine/threonine-protein kinase Nek1 (Homo sapiens) (UniProt Q96PY6); settings: Compound concentration 1000.0 nM
[43] = biological target: Mitogen-activated protein kinase kinase kinase 4 (Homo sapiens) (UniProt Q9Y6R4); settings: Compound concentration 1000.0 nM
[44] = biological target: Cyclin-dependent kinase 13 (Homo sapiens) (UniProt Q14004); settings: Compound concentration 1000.0 nM
Sequence of Cyclin-dependent kinase 13 (Homo sapiens) (Q14004 whole entry, looked up): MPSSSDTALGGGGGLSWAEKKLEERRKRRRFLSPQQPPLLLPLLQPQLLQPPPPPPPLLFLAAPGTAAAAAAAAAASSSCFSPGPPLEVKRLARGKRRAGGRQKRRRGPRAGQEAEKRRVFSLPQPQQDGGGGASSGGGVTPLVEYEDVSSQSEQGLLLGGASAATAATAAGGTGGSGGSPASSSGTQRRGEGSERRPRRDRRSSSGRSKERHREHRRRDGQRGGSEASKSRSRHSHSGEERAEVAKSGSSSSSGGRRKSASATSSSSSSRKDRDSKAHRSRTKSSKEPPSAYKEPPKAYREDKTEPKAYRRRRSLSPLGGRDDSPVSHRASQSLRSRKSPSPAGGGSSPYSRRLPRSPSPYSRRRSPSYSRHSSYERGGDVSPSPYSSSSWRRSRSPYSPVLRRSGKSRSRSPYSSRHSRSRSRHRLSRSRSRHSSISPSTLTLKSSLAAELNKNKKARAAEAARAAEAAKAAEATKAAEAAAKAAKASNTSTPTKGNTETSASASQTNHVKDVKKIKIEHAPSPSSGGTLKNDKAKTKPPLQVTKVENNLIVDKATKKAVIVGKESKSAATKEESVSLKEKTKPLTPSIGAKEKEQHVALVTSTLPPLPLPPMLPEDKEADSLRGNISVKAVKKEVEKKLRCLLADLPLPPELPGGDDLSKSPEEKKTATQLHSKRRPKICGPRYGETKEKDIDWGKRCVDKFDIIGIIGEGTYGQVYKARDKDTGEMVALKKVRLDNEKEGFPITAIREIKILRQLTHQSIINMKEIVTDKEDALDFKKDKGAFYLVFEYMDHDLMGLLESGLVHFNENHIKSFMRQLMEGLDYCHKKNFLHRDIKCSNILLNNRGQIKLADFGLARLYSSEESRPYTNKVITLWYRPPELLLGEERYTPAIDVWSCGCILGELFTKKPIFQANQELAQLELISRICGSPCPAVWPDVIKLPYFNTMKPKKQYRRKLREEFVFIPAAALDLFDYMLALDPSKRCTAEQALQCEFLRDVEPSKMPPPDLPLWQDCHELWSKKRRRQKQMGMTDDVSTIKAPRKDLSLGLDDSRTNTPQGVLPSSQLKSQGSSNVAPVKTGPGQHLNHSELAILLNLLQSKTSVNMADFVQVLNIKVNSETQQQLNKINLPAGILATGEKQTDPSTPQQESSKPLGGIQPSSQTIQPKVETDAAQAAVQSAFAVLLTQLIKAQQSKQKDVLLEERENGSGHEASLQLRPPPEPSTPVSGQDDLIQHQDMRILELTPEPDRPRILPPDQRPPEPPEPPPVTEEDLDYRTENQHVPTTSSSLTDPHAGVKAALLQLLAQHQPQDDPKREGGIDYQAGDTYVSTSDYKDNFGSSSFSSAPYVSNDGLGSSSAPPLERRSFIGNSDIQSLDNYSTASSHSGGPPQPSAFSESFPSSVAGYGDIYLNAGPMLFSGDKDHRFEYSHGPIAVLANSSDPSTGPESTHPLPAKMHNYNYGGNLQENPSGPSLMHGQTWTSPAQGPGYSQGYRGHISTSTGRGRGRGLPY

[45] = biological target: 5-hydroxytryptamine receptor 3A (Homo sapiens) (UniProt P46098); settings: Compound concentration 10.0 uM
Sequence of 5-hydroxytryptamine receptor 3A (Homo sapiens) (P46098 whole entry): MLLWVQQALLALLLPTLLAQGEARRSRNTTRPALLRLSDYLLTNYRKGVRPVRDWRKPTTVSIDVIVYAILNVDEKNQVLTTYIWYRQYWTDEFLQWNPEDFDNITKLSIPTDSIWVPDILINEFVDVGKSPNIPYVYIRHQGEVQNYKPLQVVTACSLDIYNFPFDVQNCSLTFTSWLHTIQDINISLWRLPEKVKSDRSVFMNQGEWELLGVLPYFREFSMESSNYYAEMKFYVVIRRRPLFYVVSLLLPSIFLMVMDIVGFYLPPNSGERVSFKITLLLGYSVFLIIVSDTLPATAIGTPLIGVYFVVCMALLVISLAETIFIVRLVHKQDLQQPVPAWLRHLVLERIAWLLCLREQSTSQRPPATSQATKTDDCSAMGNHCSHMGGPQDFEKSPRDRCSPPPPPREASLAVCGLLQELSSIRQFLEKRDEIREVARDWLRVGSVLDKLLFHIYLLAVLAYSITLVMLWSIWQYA

For `CO[C@@H](C)c1c(Nc2ccc([C@H](N(C)C(=O)C3CCS(=O)(=O)CC3)C(F)(F)F)cc2)cnc2cc(Cl)nn12` [NVS-MALT1], which residual activity [1] is on record?
Its residual activity is 78%.

And the residual activity [2]?
The residual activity was 100%.

What about the residual activity [3] of the same molecule?
The residual activity was 73%.

And the residual activity [4]?
The residual activity was 100%.

And the residual activity [5]?
The residual activity was 73%.

And the inhibition [6]?
The inhibition was 4.1%.

What about the inhibition [7] of the same molecule?
The inhibition was -2.45%.

And the residual activity [8]?
Its residual activity is 86%.

What about the residual activity [9] of the same molecule?
The residual activity was 100%.

And the residual activity [10]?
Its residual activity is 79%.

And the residual activity [11]?
The residual activity was 87%.

What about the residual activity [12] of the same molecule?
Its residual activity is 100%.

What about the residual activity [13] of the same molecule?
The residual activity was 85%.

What about the residual activity [14] of the same molecule?
The residual activity was 68%.

What about the residual activity [15] of the same molecule?
The residual activity was 98%.

What about the residual activity [16] of the same molecule?
Its residual activity is 92%.

And the residual activity [17]?
Its residual activity is 100%.

And the residual activity [18]?
Its residual activity is 43%.

What about the residual activity [19] of the same molecule?
The residual activity was 100%.

What about the inhibition [20] of the same molecule?
The inhibition was 14.6%.

What about the residual activity [21] of the same molecule?
The residual activity was 100%.

What about the residual activity [22] of the same molecule?
Its residual activity is 84%.

And the residual activity [23]?
Its residual activity is 100%.

What about the residual activity [24] of the same molecule?
The residual activity was 100%.

What about the residual activity [25] of the same molecule?
Its residual activity is 93%.

And the residual activity [26]?
The residual activity was 100%.

And the residual activity [27]?
Its residual activity is 84%.

What about the residual activity [28] of the same molecule?
Its residual activity is 81%.

What about the residual activity [29] of the same molecule?
Its residual activity is 100%.

And the residual activity [30]?
Its residual activity is 100%.

What about the residual activity [31] of the same molecule?
The residual activity was 97%.

And the residual activity [32]?
The residual activity was 100%.

What about the residual activity [33] of the same molecule?
The residual activity was 99%.

And the residual activity [34]?
The residual activity was 93%.

What about the residual activity [35] of the same molecule?
The residual activity was 100%.

And the residual activity [36]?
The residual activity was 65%.

What about the inhibition [37] of the same molecule?
The inhibition was 11.3%.

What about the residual activity [38] of the same molecule?
The residual activity was 96%.

What about the residual activity [39] of the same molecule?
Its residual activity is 86%.

And the residual activity [40]?
The residual activity was 88%.

What about the residual activity [41] of the same molecule?
The residual activity was 99%.

What about the residual activity [42] of the same molecule?
Its residual activity is 94%.

What about the residual activity [43] of the same molecule?
Its residual activity is 89%.

What about the residual activity [44] of the same molecule?
Its residual activity is 100%.

And the inhibition [45]?
Its inhibition is -6.2%.

How did the residual activity [1] turn out when `CO[C@@H](C)c1c(Nc2ccc([C@@H](N(C)C(=O)C3CCS(=O)(=O)CC3)C(F)(F)F)cc2)cnc2cc(Cl)nn12` [NVS-MALT1-C] was run?
Its residual activity is 93%.

And the residual activity [2]?
The residual activity was 100%.

And the residual activity [3]?
The residual activity was 91%.

And the residual activity [4]?
Its residual activity is 100%.

And the residual activity [5]?
The residual activity was 81%.

And the inhibition [6]?
The inhibition was -4.3%.

What about the inhibition [7] of the same molecule?
The inhibition was -3.07%.

And the residual activity [8]?
The residual activity was 78%.

What about the residual activity [9] of the same molecule?
Its residual activity is 100%.

What about the residual activity [10] of the same molecule?
The residual activity was 86%.

What about the residual activity [11] of the same molecule?
Its residual activity is 81%.

What about the residual activity [12] of the same molecule?
The residual activity was 100%.

What about the residual activity [13] of the same molecule?
The residual activity was 100%.

What about the residual activity [14] of the same molecule?
Its residual activity is 64%.

And the residual activity [15]?
Its residual activity is 95%.

And the residual activity [16]?
The residual activity was 96%.

And the residual activity [17]?
The residual activity was 100%.

And the residual activity [18]?
Its residual activity is 29%.

And the residual activity [19]?
The residual activity was 100%.

And the inhibition [20]?
Its inhibition is 5.1%.

And the residual activity [21]?
Its residual activity is 100%.

What about the residual activity [22] of the same molecule?
Its residual activity is 82%.

What about the residual activity [23] of the same molecule?
The residual activity was 100%.

What about the residual activity [24] of the same molecule?
The residual activity was 100%.

And the residual activity [25]?
Its residual activity is 82%.

And the residual activity [26]?
Its residual activity is 100%.

What about the residual activity [27] of the same molecule?
Its residual activity is 87%.

What about the residual activity [28] of the same molecule?
The residual activity was 79%.

And the residual activity [29]?
The residual activity was 100%.

And the residual activity [30]?
Its residual activity is 100%.

What about the residual activity [31] of the same molecule?
Its residual activity is 78%.

And the residual activity [32]?
Its residual activity is 100%.

And the residual activity [33]?
Its residual activity is 98%.

And the residual activity [34]?
The residual activity was 100%.

And the residual activity [35]?
The residual activity was 100%.

And the residual activity [36]?
The residual activity was 72%.

And the inhibition [37]?
The inhibition was 14.6%.

What about the residual activity [38] of the same molecule?
Its residual activity is 97%.

What about the residual activity [39] of the same molecule?
The residual activity was 82%.

What about the residual activity [40] of the same molecule?
The residual activity was 100%.

And the residual activity [41]?
The residual activity was 98%.

What about the residual activity [42] of the same molecule?
Its residual activity is 100%.

And the residual activity [43]?
The residual activity was 89%.

And the residual activity [44]?
Its residual activity is 100%.

And the inhibition [45]?
Its inhibition is -1.2%.
